{
  "source": "patent US6346527B1",
  "about": "“Guanidine derivatives” (Fujisawa Pharmaceutical Co., Ltd., priority 1998, dated 2002)",
  "biological_target": "T1, Na^+/H^+ exchange in cells (Rattus norvegicus, UniProt P26431)",
  "T1 construct": "The cells were dissociated by gentle strokes, and the resulting suspension was filtrated through six layers of surgical gauze; from tissue; host or cells: thymus cells (thymocytes) of a male SD rat",
  "T1 sequence (P26431 whole entry)": "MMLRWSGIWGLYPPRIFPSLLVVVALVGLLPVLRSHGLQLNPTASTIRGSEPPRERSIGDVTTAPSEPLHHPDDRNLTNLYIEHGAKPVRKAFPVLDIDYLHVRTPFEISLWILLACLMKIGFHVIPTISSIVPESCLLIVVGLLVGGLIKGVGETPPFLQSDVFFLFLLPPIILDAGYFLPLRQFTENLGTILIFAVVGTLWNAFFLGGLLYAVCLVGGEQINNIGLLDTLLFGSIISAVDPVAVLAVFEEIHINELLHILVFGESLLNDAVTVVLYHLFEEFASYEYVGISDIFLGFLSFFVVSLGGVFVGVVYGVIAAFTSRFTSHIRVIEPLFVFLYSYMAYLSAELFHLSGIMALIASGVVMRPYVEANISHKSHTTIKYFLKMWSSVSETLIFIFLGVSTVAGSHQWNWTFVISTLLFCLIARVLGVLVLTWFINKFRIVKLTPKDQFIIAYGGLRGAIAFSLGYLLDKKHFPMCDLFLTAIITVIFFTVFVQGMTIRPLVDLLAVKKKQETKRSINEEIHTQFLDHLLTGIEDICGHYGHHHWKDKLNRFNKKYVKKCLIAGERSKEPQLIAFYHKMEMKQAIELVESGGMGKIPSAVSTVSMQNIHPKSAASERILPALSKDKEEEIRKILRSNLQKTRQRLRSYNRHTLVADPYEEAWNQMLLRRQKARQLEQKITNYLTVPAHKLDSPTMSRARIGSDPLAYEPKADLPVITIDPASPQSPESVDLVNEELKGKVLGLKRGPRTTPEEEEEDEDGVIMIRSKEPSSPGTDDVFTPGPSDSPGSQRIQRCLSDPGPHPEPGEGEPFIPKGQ",
  "assay": "Inhibitory activity on Na^+/H^+ exchange in cells",
  "type": "cell-based",
  "settings": "rat (male SD) thymus cells; initial increase in intracellular pH (BCECF fluorescence) after adding NaCl (final 100 mM), 37° C.",
  "method": "[2] Inhibitory activity on Na^+/H^+ exchange in cells\nProcedure was carried out according to a similar manner to the method described in Enzymology 173, 777 (1989).\nCell preparation: One male SD strain rat weighing 250-300 g was sacrificed with the blow on the head. Then, the thymus was removed into ice-cold NaCl medium (140 mM sodium chloride, 1 mM potassium chloride, 1 mM calcium chloride, 1 mM magnesium chloride, 10 mM glucose and 20 mM N-2-hydroxyethylpiperazine-N′-2-ethanesulfonic acid (HEPES)—pH 7.3), cut in small fragments, and transferred to glass homogenizer. […]\nAssay: The pellet was washed with Na-free buffer (140 mM Trimethyl ammonium, 4 mM KCl, 1 mM CaCl2, 1 mM MgSO4, 1 mM NaH2PO4, 18 mM glucose, 20 mM HEPES (pH 7.4)), then incubated with 16 μM of acetoxymethyl ester of 2′, 7′-bis(2-carboxyethyl)-5,6-carboxyfluorescein (BCECF-AM, Calbiochem Co.) and 20 mM NH4Cl at 37° C. for 30 minutes. […] Intracellular pH was measured at 37° C. with a spectrofluorometer (FS100, Kowa company, Japan) using the ratio of the emission (530 nm) obtained at 490 nm excitation wavelengths. […] The BCECF fluorescence signals were calibrated by titration with 1 M 2-(N-morpholino)ethanesulfonic acid (MES) after permeabilization of the cells with 0.5% Triton.",
  "note": "Counter-ions that a name gives are not always drawn.",
  "data": [
    {"smiles": "N=C(N)NC(=O)C1=Cc2cccc(/C=C/C(=O)O)c2OCC1", "note": "[(a), [9-[(E)-(2-Carboxyvinyl)]-2,3-dihydro-1-benzoxepin-4-carbonyl]guanidine hydrochloride]", "values": [
      {"measurement": "IC50", "result": "< 100", "unit": "nM"}
    ]}
  ]
}
